Test results taken from patent US20230357233A1, “HETEROARYL COMPOUNDS, PREPARATION METHODS AND USES THEREOF” (INVENTISBIO CO., LTD., priority 2020, published 2023).

Columns and labels:
Ba/F3_KRAS^G12D cells = Ba/F3_KRAS^G12D cells (Homo sapiens, UniProt P01116, G12D, cells depend on it); experiment: Ba/F3 KRAS^G12D cell proliferation assay (cell-titer Glo); type: cell-based; settings: cell growth inhibition, treated with the compounds for 3 days, read-out: BaF3_KRAS^G12D IC50
[1] = biological target: recombinant human KRAS^G12D protein (Homo sapiens, UniProt P01116, G12D); experiment: Temperature-dependent Fluorescence (TdF) KRAS^G12D protein binding assay; settings: 6 μM KRAS^G12D Protein, 10 μM compound, Sypro Orange; Kd calculated from fluorescent shift
recombinant human KRAS^G12D protein, sequence (P01116 1-188 isoform P01116-2 G12D): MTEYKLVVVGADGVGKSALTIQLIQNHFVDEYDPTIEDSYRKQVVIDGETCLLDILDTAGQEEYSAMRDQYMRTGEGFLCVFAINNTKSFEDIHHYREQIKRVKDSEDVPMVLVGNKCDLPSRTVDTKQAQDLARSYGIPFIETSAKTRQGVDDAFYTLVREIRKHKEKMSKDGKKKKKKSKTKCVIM
Procedure: The TdF assay was conducted in the 96-well-based real-time fluorescence plate reader (ABI 7500 or Roche LightCycler 480). Fluorescent dye Sypro Orange (Sigma) was used to monitor the protein folding-unfolding transition. Protein-compound binding was gauged by the shift in the unfolding transition temperature (ΔTm) acquired with and without compound. […] The sample plate was heated from 30° C. to 95° C. with a thermal ramping rate of […], taking a fluorescence reading every 0.4° C. using a CY3 channel matching the excitation and emission wavelengths of Sypro Orange (λ ex 470 nm; λ em 570 nm). Binding affinity (Kd value) was calculated based on the degree of fluorescent shift of the protein with and without compound.

Ba/F3_KRAS^G12D cells, sequence (P01116 whole entry G12D): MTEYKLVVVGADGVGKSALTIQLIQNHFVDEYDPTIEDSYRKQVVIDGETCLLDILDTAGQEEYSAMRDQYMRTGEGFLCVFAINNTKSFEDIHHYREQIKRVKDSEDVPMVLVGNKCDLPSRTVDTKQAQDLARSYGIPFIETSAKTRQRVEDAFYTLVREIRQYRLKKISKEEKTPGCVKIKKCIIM

Structure (SMILES) | GI50 (Ba/F3_KRAS^G12D cells) [µM] | Kd [1] [µM]
Oc1cc(-c2ncc3c(N4CC5CCC(C4)N5)cc(OC[C@@]45CCCN4C[C@H](F)C5)nc3c2F)c2c(Cl)cccc2c1 [Compound 78] | 0.5 to 5 | ≤ 0.5
Oc1cc(-c2nc3nc(OCC45CCCN4CCC5)nc(N4CC5CCC(C4)N5)c3cc2Cl)c2ccccc2c1 [Compound 10] | > 5 | > 5
CCc1cccc2cc(O)cc(-c3nc(C)c4c(N5CC6CCC(C5)N6)nc(OC[C@@]56CCCN5C[C@H](F)C6)nc4c3F)c12 [Compound 85] | < 0.5 | ≤ 0.5
Oc1cc(-c2ncc3c(N4CC5CCC(C4)N5)nc(OC[C@@]45CCCN4C[C@H](F)C5)nc3c2F)c2c(Cl)cccc2c1 [Compound 36] | < 0.5 | ≤ 0.5
Fc1cc2c(N3CCNCC3)nc(OCC34CCCN3CCC4)nc2nc1-c1cccc2cccc(Cl)c12 [Compound 5] | > 5 | > 5
Oc1cc(-c2ncc3c(N4CCNCC4)nc(OC[C@@]45CCCN4C[C@H](F)C5)nc3c2F)c2c(Cl)cccc2c1 [Compound 72] | 0.5 to 5 | ≤ 0.5
CN(C)C1CN(c2nc(-c3cccc4cccc(Cl)c34)c(F)c3nc(N4CCNCC4)ccc23)C1 [Compound 50] | 0.5 to 5 | > 5
C#Cc1c(F)ccc2cc(O)cc(-c3nc(OC)c4c(N5CC6CCC(C5)N6)nc(OC[C@@]56CCCN5C[C@H](F)C6)nc4c3F)c12 [Compound 135] | < 0.5 | ≤ 0.5
CN1CCC[C@H]1Cn1c(=O)nc(N2CCN[C@@H](CC#N)C2)c2cnc(-c3cc(O)cc4cccc(Cl)c34)c(F)c21 [Compound 64] | > 5 | > 5
Fc1ccccc1-c1nc2cc(OCC34CCCN3CCC4)nc(N3CC4CCC(C3)N4)c2cc1F [Compound 16] | 0.5 to 5 | > 5
Fc1c(-c2cccc3cccc(Cl)c23)ncc2c(N3CCNCC3)cc(OCC34CCCN3CCC4)nc12 [Compound 67] | 0.5 to 5 | > 5
NC(=O)N1CCN(c2nc(OC[C@@]34CCCN3C[C@H](F)C4)nc3c(F)c(-c4cc(O)cc5cccc(Cl)c45)ncc23)CC1 [Compound 77] | > 5 | > 5
Cc1cccc2cc(O)cc(-c3nc(C)c4c(N5CC6CCC(C5)N6)nc(OC[C@@]56CCCN5C[C@H](F)C6)nc4c3F)c12 [Compound 93] | < 0.5 | ≤ 0.5
c1ccc2c(-c3ncc4c(N5CC6CCC(C5)N6)cc(OCC56CCCN5CCC6)nc4n3)cccc2c1 [Compound 66] | 0.5 to 5 | > 5
CCc1cccc2cc(O)cc(-c3ncc4c(N5CC6CCC(C5)N6)nc(OC[C@@]56CCCN5C[C@H](F)C6)c(Cl)c4n3)c12 [Compound 61] | 0.5 to 5 | ≤ 0.5
COc1c(F)ccc2cc(O)cc(-c3nc(OC)c4c(N5CC6CCC(C5)N6)nc(OC[C@@]56CCCN5C[C@H](F)C6)nc4c3F)c12 [Compound 147] | < 0.5 | ≤ 0.5
Nc1cccc(F)c1-c1ncc2c(N3CC4CCC(C3)N4)nc(OCC34CCCN3CCC4)cc2n1 [Compound 26] | > 5 | > 5
CN(C)CCOc1nc(N2CC3CCC(C2)N3)c2cc(F)c(-c3ccccc3F)nc2c1-c1cccnc1C1CC1 [Compound 27] | 0.5 to 5 | > 5
c1ccc2c(-c3ncc4c(N5CCNCC5)nc(OCC56CCCN5CCC6)cc4n3)cccc2c1 [Compound 18] | 0.5 to 5 | > 5
Oc1cc(-c2ncc3c(N4CC5CCC(C4)N5)cc(OCC45CCCN4CCC5)nc3c2F)c2c(Cl)cccc2c1 [Compound 71] | > 5 | 0.5 to 5
Cc1nc(-c2cc(O)cc3cccc(C#N)c23)c(F)c2nc(OC[C@@]34CCCN3C[C@H](F)C4)nc(N3CC4CCC(C3)N4)c12 [Compound 115] | > 5 | ≤ 0.5
C#Cc1c(F)ccc2cc(O)cc(-c3nc(OC)c4c(N5CC6CCC(C5)N6)nc(OC[C@]56CCCN5[C@@H](COC(=O)N(C)C)CC6)nc4c3F)c12 [Compound 176] | < 0.5 | ≤ 0.5
CCc1cccc2cc(O)cc(-c3nc(O)c4c(N5CC6CCC(C5)N6)nc(OC[C@@]56CCCN5C[C@H](F)C6)nc4c3F)c12 [Compound 133] | 0.5 to 5 | ≤ 0.5
CN1CCC[C@@H]1COc1nc(-c2cccc3ccccc23)c(F)c2nc(N3CCNCC3)ccc12 [Compound 54] | 0.5 to 5 | > 5
CC(=O)N1CCN(c2nc(OC[C@@]34CCCN3C[C@H](F)C4)nc3c(F)c(-c4cc(O)cc5cccc(Cl)c45)ncc23)CC1 [Compound 74] | > 5 | ≤ 0.5
Nc1cccc(F)c1-c1ncc2c(N3CCNCC3)nc(OCC34CCCN3CCC4)cc2n1 [Compound 22] | > 5 | > 5

Structure (SMILES) | GI50 (Ba/F3_KRAS^G12D cells) [µM] | Kd [1] [µM]
Fc1c(-c2cccc3cccc(Cl)c23)ncc2c(N3CC4CCC(C3)N4)nc(OCC34CCCN3CCC4)nc12 [Compound 6] | < 0.5 | ≤ 0.5
C[C@H]1CNCCN1c1nc(OCCN(C)C)cc2nc(-c3ccccc3F)c(F)cc12 [Compound 13] | 0.5 to 5 | > 5
COc1nc2c(N3CC4CCC(C3)N4)nc(OC[C@@H]3CCCN3C)nc2cc1-c1cc(O)cc2ccccc12 [Compound 91] | 0.5 to 5 | 0.5 to 5
CN1CCC[C@H]1Cn1c(=O)nc(N2CC3CCC(C2)N3)c2cnc(-c3cccc4cccc(Cl)c34)c(F)c21 [Compound 33] | > 5 | > 5
Oc1cc(-c2ncc3c(C4CC5CCC(C4)N5)nc(OC[C@@]45CCCN4C[C@H](F)C5)nc3c2F)c2c(Cl)cccc2c1 (some centres unmarked) [Compound 100] | > 5 | > 5
Fc1cc2c(N3CC4CCC(C3)N4)nc(OCC34CCCN3CCC4)cc2nc1-c1cccc2ccccc12 [Compound 14] | 0.5 to 5 | > 5
Oc1cc(-c2nc(OCC34CCCN3CCC4)c3ccc(N4CCNCC4)nc3c2F)c2c(Cl)cccc2c1 [Compound 57] | > 5 | > 5
Fc1c(-c2cccc3cccc(Cl)c23)ncc2c(N3CC4CCC(C3)N4)nc(OC[C@@]34CCCN3C[C@H](F)C4)nc12 [Compound 30] | < 0.5 | ≤ 0.5
CN1CCC[C@H]1COc1nc(N2CCNCC2)c2cnc(-c3ccc(F)c4sc(N)nc34)c(F)c2n1 [Compound 73] | > 5 | ≤ 0.5
Cc1nc(-c2cc(O)cc3cccc(Cl)c23)c(F)c2nc(OC[C@@]34CCCN3C[C@H](F)C4)nc(N3CC4CCC(C3)N4)c12 [Compound 89] | < 0.5 | ≤ 0.5
CN1CCC[C@H]1Cn1c(=O)nc(N2CC3CCC(C2)N3)c2cnc(-c3cc(O)cc4cccc(Cl)c34)c(F)c21 [Compound 44] | > 5 | > 5
N#Cc1cc2c(N3CC4CCC(C3)N4)nc(OC[C@@]34CCCN3C[C@H](F)C4)nc2nc1-c1cc(O)cc2ccccc12 [Compound 60] | > 5 | > 5
CCc1cccc2cc(O)cc(-c3nc(C(F)F)c4c(N5CC6CCC(C5)N6)nc(OC[C@@]56CCCN5C[C@H](F)C6)nc4c3F)c12 [Compound 136] | < 0.5 | ≤ 0.5
C#Cc1c(F)ccc2cc(O)cc(-c3nc(Cl)c4c(N5CC6CCC(C5)N6)nc(OC[C@@]56CCCN5C[C@H](F)C6)nc4c3F)c12 [Compound 132] | < 0.5 | ≤ 0.5
CC1(O)CN2CCC[C@@]2(COc2nc(N3CC4CCC(C3)N4)c3cnc(-c4cc(O)cc5cccc(Cl)c45)c(F)c3n2)C1 (some centres unmarked) [Compound 96] | > 5 | ≤ 0.5
CCOc1c(F)ccc2cc(O)cc(-c3nc(OC)c4c(N5CC6CCC(C5)N6)nc(OC[C@@]56CCCN5C[C@H](F)C6)nc4c3F)c12 [Compound 148] | < 0.5 | ≤ 0.5
Oc1cc(-c2nc(OC[C@@]34CCCN3C[C@H](F)C4)c3ccc(N4CC5CCC(C4)N5)nc3c2Br)c2c(Cl)cccc2c1 [Compound 101] | 0.5 to 5 | > 5
O=c1c2nc(OCC34CCCN3CCC4)nc(N3CC4CCC(C3)N4)c2ccn1-c1cccc2ccccc12 [Compound 108] | > 5 | > 5
Oc1cc(-c2nc(Cl)c3c(N4CC5CCC(C4)N5)nc(OC[C@@]45CCCN4C[C@H](F)C5)nc3c2Cl)c2c(Cl)cccc2c1 [Compound 120] | < 0.5 | ≤ 0.5
Oc1cc(-c2nc(Cl)c3c(N4CC5CCC(C4)N5)nc(OC[C@@]45CCCN4C[C@H](F)C5)nc3c2F)c2ccccc2c1 [Compound 95] | < 0.5 | ≤ 0.5
C#Cc1c(F)ccc2cc(N)cc(-c3nc(OC)c4c(N5CC6CCC(C5)N6)nc(OC[C@@]56CCCN5C[C@H](F)C6)nc4c3F)c12 [Compound 163] | < 0.5 | ≤ 0.5
C#Cc1cccc2cc(O)cc(-c3nc(C)c4c(N5CC6CCC(C5)N6)nc(OC[C@@]56CCCN5C[C@H](F)C6)nc4c3F)c12 [Compound 103] | < 0.5 | ≤ 0.5
Oc1cc(-c2nc3cc(OCC45CCCN4CCC5)nc(N4CC5CCC(C4)N5)c3cc2Cl)c2c(Cl)cccc2c1 [Compound 34] | > 5 | > 5
C#Cc1c(F)ccc2cc(O)cc(-c3nc(C)c4c(N5CC6CCC(C5)N6)nc(OC[C@@]56CCCN5C[C@H](F)C6)nc4c3F)c12 [Compound 128] | < 0.5 | ≤ 0.5
CN1CCC[C@@H]1COc1nc(-c2cccc3cccc(Cl)c23)c(F)c2nc(N3CCNCC3)ccc12 [Compound 53] | < 0.5 | > 5
O=c1cc2c(N3CC4CCC(C3)N4)nc(OCC34CCCN3CCC4)nc2cn1-c1cc(O)cc2cccc(Cl)c12 [Compound 111] | > 5 | > 5
